Converted amounts (≈) assume the structure as drawn. Positions of bridges follow the written chain, without caps; N, C: chain ends. Non-standard residues stand in square brackets, D forms with d. Residues, ends and D or L forms follow the SMILES beside them. *: point of attachment. Octanoyl(3-OH) = CCCCCC(O)CC(=O)*; Decanoyl = CCCCCCCCCC(=O)*; Nonanoyl = CCCCCCCCC(=O)*; X1 = CC[C@H](C)CCCCC(=O)*; dDab = NCC[C@@H](N)C(=O)O; Heptanoyl = CCCCCCC(=O)*; Octanoyl = CCCCCCCC(=O)*; Dab = NCC[C@H](N)C(=O)O
How the values were obtained:
A. baumannii 0287 = conditions: XDR A. baumannii 0287, mcr-1 −; ref CDC & FDA Antibiotic Resistant Isolate Bank; cited from earlier work
A. baumannii 0295 = conditions: XDR A. baumannii 0295, mcr-1 −; ref CDC & FDA Antibiotic Resistant Isolate Bank; cited from earlier work
A. baumannii 0286 = conditions: XDR A. baumannii 0286, mcr-1 −; ref CDC & FDA Antibiotic Resistant Isolate Bank; cited from earlier work
A. baumannii 0296 = conditions: XDR A. baumannii 0296, mcr-1 −; ref CDC & FDA Antibiotic Resistant Isolate Bank; cited from earlier work
A. baumannii 0282 = conditions: XDR A. baumannii 0282, mcr-1 −; ref CDC & FDA Antibiotic Resistant Isolate Bank; cited from earlier work
A. baumannii 0301 = conditions: XDR A. baumannii 0301, mcr-1 −; ref CDC & FDA Antibiotic Resistant Isolate Bank; cited from earlier work
[1] = tested on: A. baumannii SM1536 (pMQ124xlab1-mcr-1); assay: MIC, microbial susceptibility assay; format: cell-based, Acinetobacter baumannii; conditions: A. baumannii SM1536 upon introduction of mcr-1
[2] = tested on: A. baumannii 0301 (mcr-1); assay: MIC, microbial susceptibility assay; format: cell-based, Acinetobacter baumannii; conditions: A. baumannii 0301 upon introduction of mcr-1
[3] = tested on: K. pneumoniae ATCC13883 (pMQ124-mcr-1); conditions: K. pneumoniae 13883 upon introduction of mcr-1
[4] = tested on: E. cloacae ATCC13047 (ΔphoP/Q+phoP/Q); conditions: E. cloacae ATCC13047 upon introduction of phoP/Q
A. baumannii ATCC17978 = assay: CHIR-090 inhibition assay, growth curves; format: cell-based, Acinetobacter baumannii; conditions: 48 h growth curve

Compound	MIC (A. baumannii 0287)	MIC (A. baumannii 0295) [µg/mL]	MIC (A. baumannii 0286) [µg/mL]	MIC (A. baumannii 0296)	MIC (A. baumannii 0282) [µg/mL]	MIC (A. baumannii 0301) [µg/mL]	Fold increase in MIC [1]	Fold increase in MIC [2]	Fold increase in MIC [3]	Fold increase in MIC [4]	A. baumannii growth with CHIR-090 alone (A. baumannii ATCC17978)
C[C@H]1COc2c(N3CCN(C)CC3)c(F)cc3c(=O)c(C(=O)O)cn1c23 [Levofloxacin]	8 µg/mL (≈ 22.1 µM)	>8	8 (≈ 22.1 µM)	>8 µg/mL	8 (≈ 22.1 µM)	>8	–	–	–	–	–
CN(C)[C@@H]1C(O)=C(C(N)=O)C(=O)[C@@]2(O)C(O)=C3C(=O)c4c(O)cccc4[C@@](C)(O)[C@H]3C[C@@H]12 [Tetracycline]	>32 µg/mL	>32	>32	32 µg/mL (≈ 72 µM)	>32	>32	–	–	–	–	–
CCCCCCC(=O)N[C@@H](CCN)C(=O)N[C@H](C(=O)N[C@H](CO)C(=O)N[C@H]1CCNC(=O)[C@H](CC(C)C)NC(=O)[C@H](CCN)NC(=O)[C@H](CCN)NC(=O)[C@H]([C@@H](C)CC)NC(=O)[C@@H](CC(C)C)NC(=O)[C@H](CCN)NC1=O)[C@@H](C)O [L1] (Heptanoyl-[Dab]T[dS][Dab][Dab][dL]I[Dab][Dab]L; lactam 4-C; N-terminus assumed)	–	–	–	–	–	–	8	2	–	–	–
C[C@@H](O)[C@H]1C(=O)N2C(C(=O)O)=C(SCCN=CN)C[C@H]12 [Imipenem]	64 µg/mL (≈ 214 µM)	>64	>64	64 µg/mL (≈ 214 µM)	64 (≈ 214 µM)	>64	–	–	–	–	–
NC[C@H]1O[C@H](O[C@H]2[C@H](O)[C@@H](O[C@H]3O[C@H](CO)[C@@H](O)[C@H](N)[C@H]3O)[C@H](N)C[C@@H]2N)[C@H](N)C[C@@H]1O [Tobramycin]	>16 µg/mL	–	>16	>16 µg/mL	>16	>16	–	–	–	–	–
O=C(O)c1cn(C2CC2)c2cc(N3CCNCC3)c(F)cc2c1=O [Ciprofloxacin]	>8 µg/mL	>8	>8	>8 µg/mL	>8	>8	–	–	–	–	–
CO/N=C(\C(=O)N[C@@H]1C(=O)N2C(C(=O)[O-])=C(C[N+]3(C)CCCC3)CS[C@H]12)c1csc(N)n1 [Cefepime]	32 µg/mL (≈ 66.6 µM)	>32	32 (≈ 66.6 µM)	>32 µg/mL	>32	>32	–	–	–	–	–
CN(C)c1cc(NC(=O)CNC(C)(C)C)c(O)c2c1C[C@H]1C[C@H]3[C@H](N(C)C)C(O)=C(C(N)=O)C(=O)[C@@]3(O)C(O)=C1C2=O [Tigecycline]	–	4 (≈ 6.83 µM)	–	–	–	4 (≈ 6.83 µM)	–	–	–	–	–
CCN1CCN(C(=O)N[C@@H](C(=O)N[C@@H]2C(=O)N3[C@@H]2SC(C)(C)[C@@H]3C(=O)O)c2ccccc2)C(=O)C1=O [Piperacillin]	>128 µg/mL	>128	>128	>128 µg/mL	>128	>128	–	–	–	–	–
CNC(C)C1CCC(N)C(OC2C(N)CC(N)C(OC3OCC(C)(O)C(NC)C3O)C2O)O1 (centres unmarked) [Gentamicin]	4 µg/mL (≈ 8.38 µM)	4 (≈ 8.38 µM)	>16	>16 µg/mL	>16	8 (≈ 16.8 µM)	–	–	–	–	–
CO/N=C(\C(=O)N[C@@H]1C(=O)N2C(C(=O)O)=C(CSc3nc(=O)c(=O)[nH]n3C)CS[C@H]12)c1csc(N)n1 [Ceftriaxone]	>32 µg/mL	>32	>32	>32 µg/mL	>32	>32	–	–	–	–	–
CCCCCCCC(=O)N[C@@H](CCN)C(=O)N[C@H](C(=O)N[C@H](CO)C(=O)N[C@H]1CCNC(=O)[C@H](CC(C)C)NC(=O)[C@H](CCN)NC(=O)[C@H](CCN)NC(=O)[C@H]([C@@H](C)CC)NC(=O)[C@@H](CC(C)C)NC(=O)[C@H](CCN)NC1=O)[C@@H](C)O [L2] (Octanoyl-[Dab]T[dS][Dab][Dab][dL]I[Dab][Dab]L; lactam 4-C; N-terminus assumed)	–	–	–	–	–	–	8	2	–	–	–
C[C@@H](O)[C@H]1C(=O)N2C(C(=O)O)=C(S[C@@H]3CN[C@H](CNS(N)(=O)=O)C3)[C@H](C)[C@H]12 [Doripenem]	>8 µg/mL	>8	>8	>8 µg/mL	>8	>8	–	–	–	–	–
CCCCCC(O)CC(=O)N[C@@H](CCN)C(=O)N[C@H](C(=O)N[C@H](CO)C(=O)N[C@H]1CCNC(=O)[C@H](CC(C)C)NC(=O)[C@H](CCN)NC(=O)[C@H](CCN)NC(=O)[C@H]([C@@H](C)CC)NC(=O)[C@@H](CC(C)C)NC(=O)[C@H](CCN)NC1=O)[C@@H](C)O (stereo partly drawn) [L5] ({Octanoyl(3-OH)}-[Dab]T[dS][Dab][Dab][dL]I[Dab][Dab]L; lactam 4-C; N-terminus assumed)	–	–	–	–	–	–	4	2	–	–	–
CCCCCCCCC(=O)N[C@@H](CCN)C(=O)N[C@H](C(=O)N[C@H](CO)C(=O)N[C@H]1CCNC(=O)[C@H](CC(C)C)NC(=O)[C@H](CCN)NC(=O)[C@H](CCN)NC(=O)[C@H]([C@@H](C)CC)NC(=O)[C@@H](CC(C)C)NC(=O)[C@H](CCN)NC1=O)[C@@H](C)O [L3] (Nonanoyl-[Dab]T[dS][Dab][Dab][dL]I[Dab][Dab]L; lactam 4-C; N-terminus assumed)	–	–	–	–	–	–	4	2	–	–	–
COc1cc(Cc2cnc(N)nc2N)cc(OC)c1OC [Trimethoprim]	>8 µg/mL	>8	>8	>8 µg/mL	>8	>8	–	–	–	–	–
CN(C)c1ccc(O)c2c1C[C@H]1C[C@H]3[C@H](N(C)C)C(O)=C(C(N)=O)C(=O)[C@@]3(O)C(O)=C1C2=O [Minocycline]	<=4 μg/ml	16 (≈ 35 µM)	8 (≈ 17.5 µM)	<=4 μg/ml	8 (≈ 17.5 µM)	16 (≈ 35 µM)	–	–	–	–	–
C[C@@H](O)[C@H]1C(=O)N2C(C(=O)O)=C(S[C@@H]3CN[C@H](C(=O)N(C)C)C3)[C@H](C)[C@H]12 [Meropenem]	>8 µg/mL	>8	>8	>8 µg/mL	>8	>8	–	–	–	–	–
CC[C@H](C)CCCCC(=O)N[C@@H](CCN)C(=O)N[C@H](C(=O)N[C@H](CCN)C(=O)N[C@H]1CCNC(=O)[C@H](CC(C)C)NC(=O)[C@H](CCN)NC(=O)[C@H](CCN)NC(=O)[C@H]([C@@H](C)CC)NC(=O)[C@@H](CC(C)C)NC(=O)[C@H](CCN)NC1=O)[C@@H](C)O [Macolacin-3Dab] (X1-[Dab]T[dDab][Dab][Dab][dL]I[Dab][Dab]L; lactam 4-C)	–	–	–	–	–	–	–	–	8	4	–
C[C@@H](O)[C@H](NC(=O)c1ccc(C#Cc2ccc(CN3CCOCC3)cc2)cc1)C(=O)NO [CHIR-090]	–	–	–	–	–	–	–	–	–	–	does not inhibit A. baumannii growth
CC(C)(O/N=C(\C(=O)N[C@@H]1C(=O)N2C(C(=O)[O-])=C(C[n+]3ccccc3)CS[C@H]12)c1csc(N)n1)C(=O)O [Ceftazidime]	128 µg/mL (≈ 234 µM)	>128	128 (≈ 234 µM)	>128 µg/mL	>128	128 (≈ 234 µM)	–	–	–	–	–
NCC[C@H](O)C(=O)N[C@@H]1C[C@H](N)[C@@H](O[C@H]2O[C@H](CN)[C@@H](O)[C@H](O)[C@H]2O)[C@H](O)[C@H]1O[C@H]1O[C@H](CO)[C@@H](O)[C@H](N)[C@H]1O [Amikacin]	32 µg/mL (≈ 54.6 µM)	4 (≈ 6.83 µM)	>64	>64 µg/mL	>64	64 (≈ 109 µM)	–	–	–	–	–
CO/N=C(\C(=O)N[C@@H]1C(=O)N2C(C(=O)O)=C(COC(C)=O)CS[C@H]12)c1csc(N)n1 [Cefotaxime]	>64 µg/mL	>64	>64	>64 µg/mL	>64	>64	–	–	–	–	–
CCCCCCCCCC(=O)N[C@@H](CCN)C(=O)N[C@H](C(=O)N[C@H](CO)C(=O)N[C@H]1CCNC(=O)[C@H](CC(C)C)NC(=O)[C@H](CCN)NC(=O)[C@H](CCN)NC(=O)[C@H]([C@@H](C)CC)NC(=O)[C@@H](CC(C)C)NC(=O)[C@H](CCN)NC1=O)[C@@H](C)O [L4] (Decanoyl-[Dab]T[dS][Dab][Dab][dL]I[Dab][Dab]L; lactam 4-C; N-terminus assumed)	–	–	–	–	–	–	8	1	–	–	–
CC1(C)S[C@@H]2[C@H](NC(=O)[C@H](N)c3ccccc3)C(=O)N2[C@H]1C(=O)O [Ampicillin]	>32 µg/mL	>32	32 (≈ 91.6 µM)	>32 µg/mL	>32	>32	–	–	–	–	–

From article PMC10321319 (Nature, 2022)
